Test results reported in article PMC3566223 (Cancer prevention research (Philadelphia, Pa.), 2012).

How the values were obtained:
[1] = Curcuminoid levels in colonic mucosa biopsies; assay type: in vivo, human; conditions: for Mucosal level, mean concentration ± SEM, unwashed, surgical biopsies / Mucosal level, mean concentration ± SEM, washed, surgical biopsies / Mucosal level, mean concentration ± SEM, unwashed, endoscopy biopsies / Mucosal level, mean concentration ± SEM, washed, endoscopy biopsies: patients, oral Curcumin C3 complex 2.35 g once daily 14 days; for Mucosal level, mean concentration ± SEM, unwashed, surgical biopsies / Mucosal level, mean concentration ± SEM, washed, surgical biopsies: n=5; for Mucosal level, mean concentration ± SEM, unwashed, endoscopy biopsies / Mucosal level, mean concentration ± SEM, washed, endoscopy biopsies: n=30
[2] = test system: Apc^Min mouse model of inherited colorectal cancer; conditions: dietary curcumin; cited from earlier work
Adverse event monitoring = assay type: in vivo, human
[3] = Curcuminoid levels in plasma; assay type: in vivo, human; conditions: of 24 participants
[4] = cited from earlier work
[5] = Curcuminoid levels in 24 h urine collection; assay type: in vivo, human; conditions: 24 h urine between last two doses
[6] = Pre- and post-trial self-reported questionnaire; assay type: in vivo, human; conditions: 24 participants completing the 2 week course; period of administration
[7] = one participant, right hemi-colectomy, no bowel preparation of biopsied area
[8] = AEs possibly or probably attributable

COc1cc(/C=C/C(=O)CC(=O)/C=C/c2ccc(O)c(OC)c2)ccc1O [Curcumin, curcumin]
Surface curcumin level, single participant [1, 7]: 551.1 µg/g | Tissue curcumin level, single participant [1, 7]: 228.3 µg/g | Mean pre-wash curcumin level, left-sided paired endoscopic biopsies ([1]; oral Curcumin C3 complex 2.35 g daily 14 days, paired left-sided, n=12 pairs): 9.0 µg/g | Mean pre-wash curcumin level, right-sided paired endoscopic biopsies ([1]; oral Curcumin C3 complex 2.35 g daily 14 days, paired right-sided, n=12 pairs): 35.4 µg/g | Decrease in tissue curcumin after consecutive washes ([1]; paired right-sided biopsy samples): 74% | Mucosal level, mean concentration ± SEM, unwashed, surgical biopsies [1]: 75.32 ± 39.71 µg/g | Mucosal level, mean concentration ± SEM, washed, surgical biopsies [1]: 12.50 ± 3.07 µg/g | Mucosal level, mean concentration ± SEM, unwashed, endoscopy biopsies [1]: 42.31 ± 23.68 µg/g | Mucosal level, mean concentration ± SEM, washed, endoscopy biopsies [1]: 19.91 ± 7.87 µg/g | Persistence of high curcumin levels in mucosa post-administration ([1]; time after last dose at which mucosa was biopsied): up to 40 h | Reduction of adenoma formation [2]: 39-64% | Total gastrointestinal events, number of patients (Adverse event monitoring; 26 patients commenced curcumin): 6 | Abdominal pain, number of events (Adverse event monitoring; [8]): 3 | Bloating, number of events (Adverse event monitoring; [8]): 1 | Diarrhoea, number of events (Adverse event monitoring; [8]): 3 | Dyspepsia, number of events (Adverse event monitoring; [8]): 1 | Flatulence, number of events (Adverse event monitoring; [8]): 1 | Nausea, number of events (Adverse event monitoring; [8]): 2 | Vomiting, number of events (Adverse event monitoring; [8]): 2 | Total gastrointestinal events, number of events (Adverse event monitoring; AEs possibly or probably attributable, Curcumin C3 complex 2.35 g daily 14 days): 13 | Serious adverse events (SAEs) attributable to curcumin (Adverse event monitoring; Curcumin C3 complex 2.35 g daily 14 days): no serious adverse events | Abdominal pain, grade (Adverse event monitoring; NCI-CTC v3.0 grade): 1,2 | Bloating, grade (Adverse event monitoring; NCI-CTC v3.0 grade): 2 | Diarrhoea, grade (Adverse event monitoring; NCI-CTC v3.0 grade): 1 | Dyspepsia, grade (Adverse event monitoring; NCI-CTC v3.0 grade): 1 | Flatulence, grade (Adverse event monitoring; NCI-CTC v3.0 grade): 1 | Nausea, grade (Adverse event monitoring; NCI-CTC v3.0 grade): 1,2 | Total gastrointestinal events, grade (Adverse event monitoring; NCI-CTC v3.0 grade): 1 - 2 | Vomiting, grade (Adverse event monitoring; NCI-CTC v3.0 grade): 1,2 | Abdominal pain, number of patients (Adverse event monitoring; in vivo): 3 | Bloating, number of patients (Adverse event monitoring; in vivo): 1 | Diarrhoea, number of patients (Adverse event monitoring; in vivo): 3 | Dyspepsia, number of patients (Adverse event monitoring; in vivo): 1 | Flatulence, number of patients (Adverse event monitoring; in vivo): 1 | Nausea, number of patients (Adverse event monitoring; in vivo): 2 | Vomiting, number of patients (Adverse event monitoring; in vivo): 2 | Quantifiable in plasma (number of participants) [3]: 4 | Lipophilicity [4]: highly lipophilic | Urine level, mean [5]: 27.0 ng/mL | Urine curcumin level, range ([5]; 12 participants with quantifiable levels): 0.67 to 503.3 ng/mL | Experienced abdominal pain, post-trial responses [6]: 21 % participants | Experienced bowel incontinence, post-trial responses [6]: 12 % participants | Experienced constipation, post-trial responses [6]: 13 % participants | Experienced diarrhoea, post-trial responses [6]: 38 % participants

COc1cc(/C=C/C(=O)CC(=O)/C=C/c2ccc(O)cc2)ccc1O [Desmethoxycurcumin, desmethoxycurcumin]
Detectable in mucosal samples (number of biopsies) ([1]; of 35 mucosal samples, oral Curcumin C3 complex 2.35 g daily 14 days): 27 out of 35 | Mucosal level, mean concentration ± SEM, unwashed, surgical biopsies [1]: 10.42 ± 6.52 µg/g | Mucosal level, mean concentration ± SEM, washed, surgical biopsies [1]: 1.27 ± 0.42 µg/g | Mucosal level, mean concentration ± SEM, unwashed, endoscopy biopsies [1]: 6.33 ± 3.75 µg/g | Mucosal level, mean concentration ± SEM, washed, endoscopy biopsies [1]: 4.03 ± 1.69 µg/g
